# According to US20190367516A1 (Bayer Pharma Aktiengesellschaft, priority 2015, published 2019):
# Read-outs that look alike come from different tables or passages of the source.
# Target: T1, human M2 receptor (Homo sapiens, UniProt P08172)
# T1 sequence (P08172 1-466): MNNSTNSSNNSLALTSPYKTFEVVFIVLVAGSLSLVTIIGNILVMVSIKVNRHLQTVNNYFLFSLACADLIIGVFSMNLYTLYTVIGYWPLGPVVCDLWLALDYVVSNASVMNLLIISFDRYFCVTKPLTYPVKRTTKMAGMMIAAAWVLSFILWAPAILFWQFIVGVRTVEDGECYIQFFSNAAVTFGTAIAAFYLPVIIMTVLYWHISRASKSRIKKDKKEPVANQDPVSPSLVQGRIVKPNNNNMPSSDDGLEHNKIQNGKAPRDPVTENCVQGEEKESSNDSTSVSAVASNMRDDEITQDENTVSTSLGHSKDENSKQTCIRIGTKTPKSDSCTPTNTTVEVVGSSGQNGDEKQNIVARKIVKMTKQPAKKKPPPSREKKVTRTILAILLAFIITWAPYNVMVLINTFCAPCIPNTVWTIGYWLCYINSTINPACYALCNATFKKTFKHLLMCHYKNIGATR
# Conditions: M2-GIRK1/4 reporter cells; for EC50: in some cases mean of two or more determinations; for Emax: read-out: Efficiency, boosting of the acetylcholine effect at EC20 acetylcholine concentration
# [1] = Receptor activity EC50, allosteric potency at EC20 acetylcholine
Compound,EC50 [1] [nM],Emax [%],Efficiency (boosting of the acetylcholine effect at EC20 acetylcholine concentration) [%],"EC50 (read-out: Receptor activity EC50, allosteric potency at EC20 acetylcholine) [nM]"
"O=C(N[C@H](C(F)F)C1CC1)c1cn(-c2c(F)cc(F)cc2F)c2nc(N3C[C@@H](O)CC3=O)ccc2c1=O [Example 435, N-[(1 S)-1-Cyclopropyl-2,2-difluoroethyl]-7-[(4S)-4-hydroxy-2-oxopyrrolidin-1-yl]-4-oxo-1-(2,4,6-trifluorophenyl)-1,4-dihydro-1,8-naphthyridine-3-carboxamide]",84,100,–,–
"CC(NC(=O)c1cn(-c2c(F)cc(F)cc2F)c2nc(N3C[C@@H](O)[C@H](O)C3)ccc2c1=O)(C1CC1)C(F)(F)F (stereo partly drawn) [Example 443, N-[2-Cyclopropyl-1,1-trifluoropropan-2-yl]-7-[(3R,4R)-3,4-dihydroxypyrrolidin-1-yl]-4-oxo-1-(2,4,6-trifluorophenyl)-1,4-dihydro-1,8-naphthyridine-3-carboxamide]",–,–,100.0,9
"C[C@@H]1CN(c2ccc3c(=O)c(C(=O)N[C@@H](C4CC4)C(F)(F)F)cn(-c4c(F)cc(F)cc4F)c3n2)C(=O)O1 [Example 444, N-[(1S)-1-Cyclopropyl-2,2,2-trifluoroethyl]-7-[(5R)-5-methyl-2-oxo-1,3-oxazolidin-3-yl]-4-oxo-1-(2,4,6-trifluorophenyl)-1,4-dihydro-1,8-naphthyridine-3-carboxamide]",51,100,–,–
"O=C(N[C@@H](C1CC1)C(F)(F)F)c1cn(-c2c(F)cc(F)cc2F)c2nc(N3CC4(CC4)NC3=O)ccc2c1=O [Example 450, N-[(1 S)-1-Cyclopropyl-2,2,2-trifluoroethyl]-4-oxo-7-(5-oxo-4,6-diazaspiro[2.4]hept-6-yl)-1-(2,4,6-trifluorophenyl)-1,4-dihydro-1,8-naphthyridine-3-carboxamide]",19,78.5,–,–
"O=C(N[C@@H](C1CC1)C(F)(F)F)c1cn(-c2c(F)cc(F)cc2F)c2nc(N3CCC(F)(CO)CC3)ccc2c1=O [Example 461, N-[(1 S)-1-Cyclopropyl-2,2,2-trifluoroethyl]-7-[4-fluoro-4-(hydroxymethyl)piperidin-1-yl]-4-oxo-1-(2,4,6-trifluorophenyl)-1,4-dihydro-1,8-naphthyridine-3-carboxamide]",39,89,–,–
"O=C(N[C@@H](C1CC1)C(F)(F)F)c1cn(-c2c(F)cc(F)cc2F)c2nc(N3CC[C@@H](O)C3=O)ccc2c1=O [Example 466, N-[(1 S)-1-Cyclopropyl-2,2,2-trifluoroethyl]-7-[(3R)-3-hydroxy-2-oxopyrrolidin-1-yl]-4-oxo-1-(2,4,6-trifluorophenyl)-1,4-dihydro-1,8-naphthyridine-3-carboxamide]",26,100,–,–
"O=C(N[C@@H](C1CC1)C(F)(F)F)c1cn(-c2c(F)cc(F)cc2F)c2nc(N3CC[C@H](O)C3=O)ccc2c1=O [Example 467, N-[(1 S)-1-Cyclopropyl-2,2,2-trifluoroethyl]-7-[(3S)-3-hydroxy-2-oxopyrrolidin-1-yl]-4-oxo-1-(2,4,6-trifluorophenyl)-1,4-dihydro-1,8-naphthyridine-3-carboxamide]",42,97.5,–,–
"O=C(N[C@@H](C1CC1)C(F)(F)F)c1cn(-c2c(F)cc(F)cc2F)c2nc(N3CCC(CO)C3=O)ccc2c1=O (some centres unmarked) [Example 468, N-[(1 S)-1-Cyclopropyl-2,2,2-trifluoroethyl]-7-[3-(hydroxymethyl)-2-oxopyrrolidin-1-yl]-4-oxo-1-(2,4,6-trifluorophenyl)-1,4-dihydro-1,8-naphthyridine-3-carboxamide]",23,98.5,–,–
"CC(C)(C)NC(=O)c1cn(-c2c(F)cc(F)cc2F)c2nc(N3C[C@@H](O)CC3=O)ccc2c1=O [Example 469, N-tert-Butyl-7-[(4S)-4-hydroxy-2-oxopyrrolidin-1-yl]-4-oxo-1-(2,4,6-trifluorophenyl)-1,4-dihydro-1,8-naphthyridine-3-carboxamide]",20,100,–,–
"C[C@@H](NC(=O)c1cn(-c2c(F)cc(F)cc2F)c2nc(N3C[C@@H](O)[C@H](O)C3)ccc2c1=O)C1CC1 [Example 470, N-[(1R)-1-Cyclopropylethyl]-7-[(3R,4R)-3,4-dihydroxypyrrolidin-1-yl]-4-oxo-1-(2,4,6-trifluorophenyl)-1,4-dihydro-1,8-naphthyridine-3-carboxamide]",104,98.5,–,–
"CC(C)[C@H](C)NC(=O)c1cn(-c2c(F)cc(F)cc2F)c2nc(N3C[C@@H](O)[C@H](O)C3)ccc2c1=O [Example 472, 7-[(3R,4R)-3,4-Dihydroxypyrrolidin-1-yl]-N-[(2S)-3-methylbutan-2-yl]-4-oxo-1-(2,4,6-trifluorophenyl)-1,4-dihydro-1,8-naphthyridine-3-carboxamide]",29,90,–,–
"CC(C)[C@@H](C)NC(=O)c1cn(-c2c(F)cc(F)cc2F)c2nc(N3C[C@@H](O)CC3=O)ccc2c1=O [Example 473, 7-[(4S)-4-Hydroxy-2-oxopyrrolidin-1-yl]-N-[(2R)-3-methylbutan-2-yl]-4-oxo-1-(2,4,6-trifluorophenyl)-1,4-dihydro-1,8-naphthyridine-3-carboxamide]",31,100,–,–
"C[C@H](NC(=O)c1cn(-c2c(F)cc(F)cc2F)c2nc(N3C[C@@H](O)[C@H](O)C3)ccc2c1=O)C1CC1 [Example 477, N-[(1 S)-1-Cyclopropylethyl]-7-[(3R,4R)-3,4-dihydroxypyrrolidin-1-yl]-4-oxo-1-(2,4,6-trifluorophenyl)-1,4-dihydro-1,8-naphthyridine-3-carboxamide]",73,89,–,–
"C[C@H](NC(=O)c1cn(-c2c(F)cc(F)cc2F)c2nc(N3C[C@@H](O)CC3=O)ccc2c1=O)C1CC1 [Example 478, N-[(1 S)-1-Cyclopropylethyl]-7-[(4S)-4-hydroxy-2-oxopyrrolidin-1-yl]-4-oxo-1-(2,4,6-trifluorophenyl)-1,4-dihydro-1,8-naphthyridine-3-carboxamide]",24,100,–,–

# Further lines, results first:
EC50 [1] [nM],Emax [%],Efficiency (boosting of the acetylcholine effect at EC20 acetylcholine concentration) [%],"EC50 (read-out: Receptor activity EC50, allosteric potency at EC20 acetylcholine) [nM]",Compound
8,95.5,–,–,"O=C(N[C@H](C1CC1)C(F)(F)F)c1cn(-c2c(F)cc(F)cc2F)c2nc(N3CC4CC4(O)C3)ccc2c1=O (stereo partly drawn) [Example 405, N-[(1R)-1-Cyclopropyl-2,2,2-trifluoroethyl]-7-[1-hydroxy-3-azabicyclo[3.1.0]hex-3-yl]-4-oxo-1-(2,4,6-trifluorophenyl)-1,4-dihydro-1,8-naphthyridine-3-carboxamide]"
9,88,–,–,"CC[C@@H](NC(=O)c1cn(-c2c(F)cc(F)cc2Cl)c2nc(N3CC4CC4(O)C3)ccc2c1=O)C(F)(F)F (stereo partly drawn) [Example 406, 1-(2-Chloro-4,6-difluorophenyl)-7-[1-hydroxy-3-azabicyclo[3.1.0]hex-3-yl]-4-oxo-N-[(2R)-1,1,1-trifluorobutan-2-yl]-1,4-dihydro-1,8-naphthyridine-3-carboxamide]"
9,94,–,–,"C[C@H](NC(=O)c1cn(-c2c(F)cc(F)cc2Cl)c2nc(N3CC4CC4(O)C3)ccc2c1=O)C(F)(F)F (stereo partly drawn) [Example 408, 1-(2-Chloro-4,6-difluorophenyl)-7-[1-hydroxy-3-azabicyclo[3.1.0]hex-3-yl]-4-oxo-N-[(2S)-1,1,1-trifluoropropan-2-yl]-1,4-dihydro-1,8-naphthyridine-3-carboxamide]"
46,91.5,–,–,"C[C@H](NC(=O)c1cn(-c2c(F)cc(F)cc2Cl)c2nc(N3CCNC3=O)ccc2c1=O)C(F)(F)F [Example 419, 1-(2-Chloro-4,6-difluorophenyl)-4-oxo-7-(2-oxoimidazolidin-1-yl)-N-[(2S)-1-1,1,1-trifluoropropan-2-yl]-1,4-dihydro-1,8-naphthyridine-3-carboxamide]"
48,100,–,–,"C[C@@H](COC(F)(F)F)NC(=O)c1cn(-c2c(F)cc(F)cc2Cl)c2nc(N3C[C@@H](O)CC3=O)ccc2c1=O [Example 421, 1-(2-Chloro-4,6-difluorophenyl)-7-[(4S)-4-hydroxy-2-oxopyrrolidin-1-yl]-4-oxo-N-[(2S)-1-(trifluoromethoxy)propan-2-yl]-1,4-dihydro-1,8-naphthyridine-3-carboxamide]"
61,90,–,–,"CC[C@H](NC(=O)c1cn(-c2c(F)cc(F)cc2Cl)c2nc(N3C(=O)CC[C@@H]3CO)ccc2c1=O)C(F)(F)F [Example 430, 1-(2-Chloro-4,6-difluorophenyl)-7-[(2R)-2-(hydroxymethyl)-5-oxopyrrolidin-1-yl]-4-oxo-N-[(2)-1,1,1-trifluorobutan-2-yl]-1,4-dihydro-1,8-naphthyridine-3-carboxamide]"
92,98,–,–,"CC[C@@H](NC(=O)c1cn(-c2ccc(F)cc2F)c2nc(N3CCC(C)C3=O)ccc2c1=O)C(F)(F)F (stereo partly drawn) [Example 431, 1-(2,4-Difluorophenyl)-7-[3-methyl-2-oxopyrrolidin-1-yl]-4-oxo-N-[(2R)-1,1,1-trifluorobutan-2-yl]-1,4-dihydro-1,8-naphthyridine-3-carboxamide]"
61,92,–,–,"CC[C@@H](NC(=O)c1cn(-c2ccc(F)cc2F)c2nc(N3C(=O)NCC3C)ccc2c1=O)C(F)(F)F (stereo partly drawn) [Example 434, 1-(2,4-Difluorophenyl)-7-[5-methyl-2-oxoimidazolidin-1-yl]-4-oxo-N-[(2R)-1,1,1-trifluorobutan-2-yl]-1,4-dihydro-1,8-naphthyridine-3-carboxamide]"
